From the supplement of paper PMC10331698
± gives the standard deviation of the averaged measurements.

Assays:
Assay in all cases: LOEC (log10 uM (lowest observed effect concentration))
[1] = compound: NS(=O)(=O)C(F)(F)C(F)(F)C(F)(F)C(F)(F)C(F)(F)C(F)(F)C(F)(F)C(F)(F)F [Perfluorooctanesulfonamide]
Procedure: (§1)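 BioMAP Diversity Plus panel in human primary cell co-cultures, 4 concentrations in duplicate blinded samples. Responses are log10 fold change versus DMSO control, processed with tcpl v2.1.0. A hit is called when responses at any concentration exceed the cutoff (the larger of 3*bmad or log10(1.2)); the lowest observed effect concentration (modl_ga, log10 uM) is reported for hits.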

[2] = compound: O=C(O)C(F)(F)OC(F)(F)C(F)(F)OC(F)(F)C(F)(F)OC(F)(F)C(F)(F)C(F)(F)C(F)(F)F [Perfluoro-3,6,9-trioxatridecanoic acid]
Procedure: as §1

[3] = compound: CCNS(=O)(=O)C(F)(F)C(F)(F)C(F)(F)C(F)(F)C(F)(F)C(F)(F)C(F)(F)C(F)(F)F [N-Ethylperfluorooctanesulfonamide]
Procedure: as §1

[4] = compound: O=C(O)C=C(C(F)(F)F)C(F)(F)F [3,3-Bis(trifluoromethyl)-2-propenoic acid]
Procedure: as §1

[5] = compound: O=C(O)C(F)(F)C(F)(F)C(F)(F)C(F)(F)C(F)(F)C(F)(F)C(F)(F)C(F)(F)F [Perfluorononanoic acid]
Procedure: as §1

[6] = compound: O=C(O)C(F)(F)C(F)(F)C(F)(F)C(F)(F)C(F)(F)C(F)(F)C(F)(F)C(F)(F)C(F)(F)C(F)(F)F [Perfluoroundecanoic acid]
Procedure: as §1

[7] = compound: OCC(F)(F)OC(F)(F)C(F)(F)OC(F)(F)C(F)(F)OC(F)(F)CO [1H,1H,11H,11H-Perfluorotetraethylene glycol]
Procedure: as §1

Row | Test System | LOEC (log10 uM) [1] | LOEC (log10 uM) [2] | LOEC (log10 uM) [3] | LOEC (log10 uM) [4] | LOEC (log10 uM) [5] | LOEC (log10 uM) [6] | LOEC (log10 uM) [7]
1 | CASM3C LDLR down | 1.78 | 1.78 | – | – | – | – | –
2 | 4H Pselectin down | 1.78 | 1.78 | 1.54 ± 0.34 | 1.78 | – | – | –
3 | SAg MIG down | 1.78 | 1.78 | – | – | – | – | –
4 | CASM3C uPAR down | 1.78 | – | – | – | – | – | –
5 | SAg SRB down | 1.78 | 1.78 | 1.78 | – | 1.78 | – | –
6 | LPS IL8 down | 1.78 | 1.07 ± 0.32 | 1.78 | – | – | – | –
7 | CASM3C Proliferation down | 1.78 | 1.78 | – | 1.78 | – | – | –
8 | MyoF PAI1 down | 1.78 | 1.07 ± 0.32 | 1.78 | – | – | 0.845 | –
9 | BE3C ITAC down | 1.3 | 0.845 | 1.3 | – | 1.78 | 0.301 | –
10 | 3C IL8 down | – | 1.3 | – | – | – | – | –
11 | BF4T CD90 down | 1.78 | 1.3 | – | – | – | – | –
12 | 3C TissueFactor down | 1.78 | 1.3 | – | – | 1.78 | – | –
13 | LPS TissueFactor down | 1.78 | 1.78 | – | – | – | – | –
14 | KF3CT MMP9 down | 1.3 | 0.845 | 1.3 | – | 1.31 ± 0.66 | 0.301 | –
15 | 3C SRB down | 1.3 | 1.3 | 1.78 | – | 1.78 | – | –
16 | BE3C ICAM1 down | 1.78 | 0.845 | – | – | 1.78 | 0.845 | –

Row | Test System | LOEC (log10 uM) [1] | LOEC (log10 uM) [2] | LOEC (log10 uM) [3] | LOEC (log10 uM) [4] | LOEC (log10 uM) [5] | LOEC (log10 uM) [6] | LOEC (log10 uM) [7]
17 | KF3CT TIMP2 down | 1.78 | 0.845 | 1.78 | – | – | 0.845 | –
18 | KF3CT MCP1 down | 1.78 | 0.845 | – | – | 0.801 ± 0.71 | 0.845 | –
19 | SAg CD38 down | 1.54 ± 0.34 | 1.78 | 1.78 | – | 1.78 | – | –
20 | BT Bcell Proliferation up | – | – | – | – | 1.78 | – | –
21 | SAg MCP1 down | 1.78 | 1.78 | 1.78 | – | 1.78 | – | –
22 | MyoF ACTA1 down | 1.3 | 0.845 | 1.78 | – | 1.78 | 0.845 | 1.78
23 | hDFCGF SRB down | 1.78 | 0.845 | 1.54 ± 0.34 | – | – | 0.845 | –
24 | 3C HLADR down | 1.54 ± 0.34 | 1.78 | – | 1.78 | 1.78 | – | –
25 | 3C MCP1 down | 1.78 | 1.78 | – | – | 1.78 | – | –
26 | BT Bcell Proliferation down | – | – | – | 1.78 | – | – | –
27 | LPS Eselectin down | 1.78 | 1.78 | – | – | – | – | –
28 | KF3CT PAI1 down | 1.54 ± 0.34 | 0.845 | 1.54 ± 0.34 | – | 1.78 | 0.301 | –
29 | 4H uPAR down | 1.78 | 1.78 | – | – | – | – | –
30 | BE3C MIG down | 1.78 | 0.845 | 1.78 | – | 1.78 | 0.845 | –
31 | KF3CT SRB down | 1.78 | 1.3 | – | – | – | 0.845 | –
